ChEMBL document CHEMBL3046677, “Diastereoselective synthesis of the model insect antifeedants related to azadiradione and epoxyazadiradione based on intramolecular insertion of -aryl--diazoketones” (1998)

What follows are compounds tested on Spodoptera frugiperda (assay: Antifeedant activity against Spodoptera frugiperda (fall armyworm) assessed as antifeedant index at 100 ppm).
Format: functional

Compound	AFI
C[C@@H]1CCC[C@@]2(C)[C@H](c3ccoc3)C(=O)[C@H]3O[C@]132 (racemic)	29%
O=C1[C@H]2O[C@]23CCCC[C@H]3[C@@H]1c1ccsc1 (racemic)	36%
O=C1[C@H]2O[C@]23CCCC[C@H]3[C@@H]1c1ccccc1 (racemic)	-12%
O=C1C=C2CCCC[C@H]2[C@@H]1c1ccccc1 (racemic)	40%
O=C1C=C2CCCC[C@H]2[C@@H]1c1ccsc1 (racemic)	1%
O=C1C=C2CCCC[C@H]2[C@@H]1c1ccoc1 (racemic)	42%

These compounds were tested on Spodoptera littoralis (assay: Antifeedant activity against Spodoptera littoralis assessed as antifeedant index at 100 ppm).
Format: functional

Compound	AFI
CC1(C)CCC[C@]2(C)C1=CC(=O)[C@H]2c1ccoc1 (racemic)	16%
CC1(C)CCC[C@@]2(C)[C@H](c3ccoc3)C(=O)[C@H]3O[C@@]312 (racemic)	28%
CC1(C)CCC[C@@]2(C)[C@H](c3ccoc3)C(=O)[C@H]3O[C@@]312 (stereo in doubt; (+))	55%
CC1(C)CCC[C@@]2(C)[C@H](c3ccoc3)C(=O)[C@H]3O[C@@]312 (stereo in doubt; (-))	32%
CC(=O)O[C@@H]1C[C@H]2C(C)(C)C(=O)C=C[C@]2(C)[C@H]2CC[C@]3(C)C(=CC(=O)[C@H]3c3ccoc3)[C@@]21C [AZADIRADIONE]	1%
CC(=O)O[C@@H]1C[C@H]2C(C)(C)C(=O)C=C[C@]2(C)[C@H]2CC[C@@]3(C)[C@H](c4ccoc4)C(=O)[C@H]4O[C@]43[C@@]21C [EPOXYAZADIRADIONE]	22%
